The subject of data set [1] is nuclear HeLa extract (mixture of class I and II HDACs). Description: Fluorimetric HDAC activity assay with nuclear HeLa extract. It counts as biochemical, human. The note with it: nuclear HeLa extract inhibitory activity, substrate Ac-NH-GGK(Ac)-AMC 25 μM, 90 min at 30° C. As for the experimental part: HDAC activity is isolated from nuclear HeLa extracts according to a method original described by Dignam et al. (Nucl. Acids Res. 11, pp 1475, 1983). Briefly, nuclei isolated from HeLa cells (CIL SA, Seneffe, Belgium) are resuspended in buffer C (20 mM Hepes pH 7.9, 25% v:v glycerol, 0.42M NaCl, 1.5 mM MgCl2, 0.2 mM EDTA, 0.5 mM PefaBloc and 0.5 mM DTT) and stirred for 30 min on ice. After centrifugation, the supernatant is dialysed against buffer D (40 mM Tris HCl pH 7.4, 100 mM KCl, 0.2 mM EDTA, 0.5 mM DTT and 25% v:v glycerol) for 5 h at 4° C. After dialysis and centrifugation, the supernatant is stored in aliquots at −80° C. and used for Western blot analysis as well as the enzymatic assay as described in the following.
The HDAC enzyme activity assay is done as described by Wegener et al. (Chem. & Biol. 10, 61-68, 2003). […] After incubation at room temperature for further 40 min, fluorescence is measured using a Wallac Victor 1420 multilabel counter (Ex 355 nm, Em 460 nm) for quantification of AMC (7-amino-4-methylcoumarin) generated by trypsine cleavage of the deacetylated peptide. […] The corresponding pIC50 values of the compounds for HDAC inhibitory activity are determined from the concentration-effect curves by means of non-linear regression (Graphpad Prism software).

A further data set addresses T1, rHDAC3 (Homo sapiens, UniProt O15379).
T1 construct: FLAG; made in house; host or cells: baculovirus-infected Sf21 insect cells
Description: rHDAC3 enzymatic assay (recombinant FLAG-HDAC3). The note with it: FLAG-HDAC3 from insect cells; 6 μM Ac-NH-GGK(Ac)-AMC, 2 h at 30° C.; read-out: rHDAC3 [pIC50] (converted). It counts as biochemical. The text has this: Human HDAC1 and HDAC6 fused with the FLAG epitope are stably expressed in HEK293 cells while human HDAC3 and HDAC8 fused with the FLAG epitope are overexpressed in baculo-virus infected insect (Sf21) cells. To ensure stability of FLAG-HDAC3 the SMRT protein is co-expressed in the corresponding insect cells. […] FLAG-HDAC3 and FLAG-HDAC8 are also purified by M2-agarose affinity chromatography after mass cultivation of the insect cells and cell lysis.
The HDAC enzyme activity assay is done as described by Wegener et al. (Chem. & Biol. 10, 61-68, 2003). Briefly 40 μl of a 1:100 dilution (=0.4 μl) nuclear HeLa extract (mixture of class I and II HDACs), 29 μl enzyme buffer (15 mM Tris HCl pH 8.1, 0.25 mM EDTA, 250 mM NaCl, 10% v:v glycerol) and 1 μl test compound are added to a well of a 96 well microtiter plate and reaction started by addition of 3 μl substrate (Ac-NH-GGK(Ac)-AMC; final concentration 25 μM and final volume […]). […] After incubation at room temperature for further 40 min, fluorescence is measured using a Wallac Victor 1420 multilabel counter (Ex 355 nm, Em 460 nm) for quantification of AMC (7-amino-4-methylcoumarin) generated by trypsine cleavage of the deacetylated peptide. […] The corresponding pIC50 values of the compounds for HDAC inhibitory activity are determined from the concentration-effect curves by means of non-linear regression (Graphpad Prism software).
The HDAC1, HDAC3 and HDAC6 enzymatic assays are done with slight modifications with recombinant FLAG-HDAC1 and FLAG-HDAC6 proteins isolated from HEK293 cell lysates or recombinant FLAG-HDAC3 isolated from insect cells, respectively. The HDAC8 enzymatic assay using recombinant FLAG-HDAC8 isolated from insect cells is done with a different substrate. About 4.5 ng/well FLAG-HDAC1 and 3.1 ng/well FLAG-HDAC6 (dependent on batches and specific activity) are incubated with 6 μM or 10 μM Ac-NH-GGK(Ac)-AMC substrate, respectively, for 3 h at 30° C. About 1.7 ng/well FLAG-HDAC3 is incubated with 6 μM Ac-NH-GGK(Ac)-AMC substrate for 2 h at 30° C., while approximately 130 ng/well FLAG-HDAC8 is incubated with 50 μM Ac-RHK(Ac)K(Ac)-AMC substrate for 3 h at 30° C. Termination of the reaction and all further steps are done as described for HeLa cell nuclear extracts as a source for HDAC enzymatic activity. The corresponding pIC50 values of the compounds for HDAC1, HDAC3, HDAC6 and HDAC8 inhibitory activity are determined from the concentration-effect curves by means of non-linear regression.

Data set [2] can be described thus: Cellular cytotoxicity assay (Alamar Blue/Resazurin), A549. It counts as cell-based. Conditions: human, A549 cells; A549, 72 hours incubation, Resazurin; read-out: A549 Cytotoxicity [pIC50] (converted). As for the experimental part: The anti-proliferative activity of the compounds as described herein, is evaluated with various solid and hematological cancer cell lines using the Alamar Blue (Resazurin) cell viability assay (O'Brien et al, Eur J Biochem 267, 5421-5426, 2000). Resazurin is reduced to the fluorescent resorufin by cellular dehydrogenase activity, correlating with viable, proliferating cells. Test compounds are dissolved as 20 mM solutions in dimethylsulfoxide (DMSO) and subsequently diluted in semi-logarithmic steps. The cancer cell lines are seeded into 96 well flat bottom plates at respective cell densities in a volume of 200 μl per well to allow continuous proliferation during the experiment. 24 hours after seeding 1 μl each of the compound dilutions is added into each well of the 96 well plate. Wells containing untreated control cells are filled with 200 μl DMEM medium containing 0.5% v:v DMSO. The cells are then incubated with the substances for 72 hours at 37° C. in a humidified atmosphere containing 5% carbon dioxide. To determine the viability of the cells, 20 μl of a Resazurin solution (Sigma; 90 mg/l) are added. After 4 hours incubation at 37° C. the fluorescence is measured at an extinction of 544 nm and an emission of 590 nm. For the calculation of the cell viability the emission value from untreated cells is set as 100% viability and the emission rates of treated cells are set in relation to the values of untreated cells. Viabilities are expressed as % values. The corresponding pIC50 values of the compounds for cytotoxic activity are determined from the concentration-effect curves by means of non-linear regression.
A general note: The colour change of resazurin is a common sign of viable cells or microbes.

For orientation: melting point means the temperature of the solid-liquid transition.

T1 sequence (O15379 whole entry): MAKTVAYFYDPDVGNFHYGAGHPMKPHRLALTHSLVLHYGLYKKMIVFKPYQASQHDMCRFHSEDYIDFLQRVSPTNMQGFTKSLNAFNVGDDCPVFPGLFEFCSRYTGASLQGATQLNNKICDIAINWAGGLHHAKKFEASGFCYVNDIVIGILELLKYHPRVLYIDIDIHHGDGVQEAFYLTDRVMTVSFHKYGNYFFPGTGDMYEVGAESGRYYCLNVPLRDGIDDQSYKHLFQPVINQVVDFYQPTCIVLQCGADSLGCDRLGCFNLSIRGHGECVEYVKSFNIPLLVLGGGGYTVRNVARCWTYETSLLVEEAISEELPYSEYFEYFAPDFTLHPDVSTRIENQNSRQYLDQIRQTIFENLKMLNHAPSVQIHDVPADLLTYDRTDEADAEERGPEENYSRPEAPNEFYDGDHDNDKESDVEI
T1 sequence (Q9Y618 whole entry partner): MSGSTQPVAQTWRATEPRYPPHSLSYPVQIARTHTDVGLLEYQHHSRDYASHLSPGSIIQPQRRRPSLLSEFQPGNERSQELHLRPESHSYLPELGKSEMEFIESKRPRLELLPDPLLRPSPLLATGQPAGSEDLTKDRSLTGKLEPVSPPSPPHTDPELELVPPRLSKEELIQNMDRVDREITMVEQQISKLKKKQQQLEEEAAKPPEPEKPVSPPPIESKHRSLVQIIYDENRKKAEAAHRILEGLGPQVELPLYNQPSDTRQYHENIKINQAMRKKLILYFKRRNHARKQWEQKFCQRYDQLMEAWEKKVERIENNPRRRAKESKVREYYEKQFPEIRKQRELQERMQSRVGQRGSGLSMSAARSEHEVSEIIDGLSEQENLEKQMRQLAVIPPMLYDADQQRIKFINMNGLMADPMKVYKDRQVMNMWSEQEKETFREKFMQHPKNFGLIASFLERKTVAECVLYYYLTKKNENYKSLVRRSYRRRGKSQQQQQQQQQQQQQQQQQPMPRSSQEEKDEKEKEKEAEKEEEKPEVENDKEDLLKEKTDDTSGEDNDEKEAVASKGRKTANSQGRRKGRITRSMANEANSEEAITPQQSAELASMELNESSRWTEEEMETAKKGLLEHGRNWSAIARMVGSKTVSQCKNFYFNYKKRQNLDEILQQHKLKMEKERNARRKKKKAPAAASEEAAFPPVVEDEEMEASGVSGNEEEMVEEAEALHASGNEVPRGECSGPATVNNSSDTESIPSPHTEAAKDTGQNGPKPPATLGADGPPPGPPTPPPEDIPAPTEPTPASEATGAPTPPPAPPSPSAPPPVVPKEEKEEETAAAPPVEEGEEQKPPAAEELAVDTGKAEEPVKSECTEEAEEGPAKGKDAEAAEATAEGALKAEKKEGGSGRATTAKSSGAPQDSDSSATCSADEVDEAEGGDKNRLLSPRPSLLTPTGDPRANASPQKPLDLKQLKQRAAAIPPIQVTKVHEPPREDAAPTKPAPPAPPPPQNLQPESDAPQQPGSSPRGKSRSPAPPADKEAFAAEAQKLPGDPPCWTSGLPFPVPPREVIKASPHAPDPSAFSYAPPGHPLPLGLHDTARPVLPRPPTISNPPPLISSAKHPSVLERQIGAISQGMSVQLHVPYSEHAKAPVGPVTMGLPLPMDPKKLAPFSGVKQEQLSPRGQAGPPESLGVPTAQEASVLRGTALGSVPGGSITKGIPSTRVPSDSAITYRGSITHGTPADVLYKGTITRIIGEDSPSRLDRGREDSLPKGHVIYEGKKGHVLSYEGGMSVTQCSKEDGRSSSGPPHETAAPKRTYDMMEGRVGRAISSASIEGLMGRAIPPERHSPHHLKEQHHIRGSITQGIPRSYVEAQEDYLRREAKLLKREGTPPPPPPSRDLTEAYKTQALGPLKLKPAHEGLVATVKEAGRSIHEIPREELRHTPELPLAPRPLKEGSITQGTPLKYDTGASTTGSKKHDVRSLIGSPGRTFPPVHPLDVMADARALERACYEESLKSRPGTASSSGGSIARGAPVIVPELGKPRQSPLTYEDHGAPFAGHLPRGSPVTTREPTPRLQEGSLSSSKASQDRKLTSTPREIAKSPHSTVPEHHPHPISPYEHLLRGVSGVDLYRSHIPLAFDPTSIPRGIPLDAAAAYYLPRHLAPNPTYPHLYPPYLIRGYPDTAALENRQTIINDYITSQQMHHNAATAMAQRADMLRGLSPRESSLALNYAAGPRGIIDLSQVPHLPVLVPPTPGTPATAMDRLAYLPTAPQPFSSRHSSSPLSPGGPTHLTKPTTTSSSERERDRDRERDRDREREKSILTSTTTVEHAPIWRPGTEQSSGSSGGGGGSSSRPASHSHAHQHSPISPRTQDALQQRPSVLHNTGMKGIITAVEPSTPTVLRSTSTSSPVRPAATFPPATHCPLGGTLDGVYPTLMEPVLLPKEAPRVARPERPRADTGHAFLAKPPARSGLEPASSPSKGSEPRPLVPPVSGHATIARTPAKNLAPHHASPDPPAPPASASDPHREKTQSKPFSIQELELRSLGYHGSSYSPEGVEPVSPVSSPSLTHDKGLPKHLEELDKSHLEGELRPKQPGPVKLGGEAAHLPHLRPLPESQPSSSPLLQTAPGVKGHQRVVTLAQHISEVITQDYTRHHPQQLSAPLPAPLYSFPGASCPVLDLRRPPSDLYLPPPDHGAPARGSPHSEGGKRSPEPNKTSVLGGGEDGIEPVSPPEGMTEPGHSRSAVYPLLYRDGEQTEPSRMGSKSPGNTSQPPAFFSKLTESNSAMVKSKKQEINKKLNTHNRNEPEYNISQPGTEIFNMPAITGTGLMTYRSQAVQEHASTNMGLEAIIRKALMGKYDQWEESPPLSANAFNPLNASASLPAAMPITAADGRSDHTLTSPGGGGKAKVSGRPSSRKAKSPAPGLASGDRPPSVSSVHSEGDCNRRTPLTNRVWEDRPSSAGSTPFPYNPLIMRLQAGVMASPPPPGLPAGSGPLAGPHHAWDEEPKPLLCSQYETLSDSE

With `COCCOCC(=O)N1CCc2cc(C(=O)NO)ccc2C1` [Example 11, N-Hydroxy-2-[(2-methoxyethoxy)acetyl]-1,2,3,4-tetrahydroisoquinoline-6-carboxamide], the “HeLa nuclear extract [pIC50]” value in data set [1] (listed as Ex. 11) was 4.22. In addition, the IC50 on rHDAC3 was 10 to 100 µM. In data set [2], the IC50 at 72 h is over 100 µM.
For `COc1ccc2[nH]c(C(=O)N3CCc4cc(C(=O)NO)ccc4C3)cc2c1` [Example 15, N-Hydroxy-2-[(5-methoxy-1H-indol-2-yl)carbonyl]-1,2,3,4-tetrahydroisoquinoline-6-carboxamide], the melting point amounted to 156 °C. The “HeLa nuclear extract [pIC50]” value in data set [1] (listed as Ex. 15) came to 6.10. Moreover, the IC50 on rHDAC3 is 1 to 10 µM. The IC50 at 72 h in data set [2] is 1 to 100 µM.

The record behind these values is patent US8575193B2, “N-substituted tetrahydroisoquinoline/isoindoline hydroxamic acid compounds” (4SC AG, priority 2008, dated 2013).
